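48-hour exposure; five concentrations; linearly interpolated endpoints. TGI denotes the concentration required for complete inhibition of growth.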
Legend:
Assay in all cases: NCI anticancer screen, dose series, 48 h
HL-60(TB) leukemia = tested on: HL-60(TB) leukemia
MCF7 breast = tested on: MCF7 breast
K-562 leukemia = tested on: K-562 leukemia
SNB-19 CNS = tested on: SNB-19 CNS
786-0 renal = tested on: 786-0 renal
SK-OV-3 ovarian = tested on: SK-OV-3 ovarian
SF-295 CNS = tested on: SF-295 CNS
SK-MEL-5 melanoma = tested on: SK-MEL-5 melanoma
TK-10 renal = tested on: TK-10 renal
HOP-92 NSCLC = tested on: HOP-92 NSCLC
SK-MEL-2 melanoma = tested on: SK-MEL-2 melanoma
MOLT-4 leukemia = tested on: MOLT-4 leukemia
EKVX NSCLC = tested on: EKVX NSCLC
SR leukemia = tested on: SR leukemia
NCI-H23 lung = tested on: NCI-H23 lung
UACC-62 melanoma = tested on: UACC-62 melanoma
CCRF-CEM leukemia = tested on: CCRF-CEM leukemia
OVCAR-5 ovarian = tested on: OVCAR-5 ovarian
ACHN renal = tested on: ACHN renal
SF-268 CNS = tested on: SF-268 CNS
HT29 colon = tested on: HT29 colon
HCT-15 colon = tested on: HCT-15 colon
T-47D breast = tested on: T-47D breast
OVCAR-8 ovarian = tested on: OVCAR-8 ovarian
NCI-H460 lung = tested on: NCI-H460 lung
SW-620 colon = tested on: SW-620 colon
HCC-2998 colon = tested on: HCC-2998 colon
M14 melanoma = tested on: M14 melanoma
KM12 colon = tested on: KM12 colon
PC-3 prostate = tested on: PC-3 prostate
NCI-H522 lung = tested on: NCI-H522 lung
U251 CNS = tested on: U251 CNS
SF-539 CNS = tested on: SF-539 CNS
NCI/ADR-RES ovarian = tested on: NCI/ADR-RES ovarian
BT-549 breast = tested on: BT-549 breast
HS 578T breast = tested on: HS 578T breast
SK-MEL-28 melanoma = tested on: SK-MEL-28 melanoma
MDA-MB-231 breast = tested on: MDA-MB-231 breast
NCI-H226 lung = tested on: NCI-H226 lung
UO-31 renal = tested on: UO-31 renal
MDA-MB-435 = tested on: MDA-MB-435
OVCAR-3 ovarian = tested on: OVCAR-3 ovarian
HCT-116 colon = tested on: HCT-116 colon
DU-145 prostate = tested on: DU-145 prostate
HOP-62 NSCLC = tested on: HOP-62 NSCLC
SN12C renal = tested on: SN12C renal
COLO 205 colon = tested on: COLO 205 colon
SNB-75 CNS = tested on: SNB-75 CNS
RPMI-8226 leukemia = tested on: RPMI-8226 leukemia
OVCAR-4 ovarian = tested on: OVCAR-4 ovarian
IGROV1 ovarian = tested on: IGROV1 ovarian
RXF 393 renal = tested on: RXF 393 renal
UACC-257 melanoma = tested on: UACC-257 melanoma
LOX IMVI melanoma = tested on: LOX IMVI melanoma
MALME-3M melanoma = tested on: MALME-3M melanoma
A498 renal = tested on: A498 renal
A549 NSCLC = tested on: A549 NSCLC
CAKI-1 renal = tested on: CAKI-1 renal

Q: Which TGI (HL-60(TB) leukemia) does the source give for `COc1ccc2c(c1OC)OC[C@@H](C1=CC(=O)C=C(O)C1=O)C2` here?
A: The TGI was 1.88 µM.

Q: And the TGI (MCF7 breast)?
A: The TGI was 27 µM.

Q: And the TGI (K-562 leukemia)?
A: Its TGI is 11.8 µM.

Q: And the TGI (SNB-19 CNS)?
A: Its TGI is 34.7 µM.

Q: And the TGI (786-0 renal)?
A: The TGI was 16.9 µM.

Q: What about the TGI (SK-OV-3 ovarian) of the same molecule?
A: The TGI was 30.3 µM.

Q: And the TGI (SF-295 CNS)?
A: The TGI was 30.7 µM.

Q: What about the TGI (SK-MEL-5 melanoma) of the same molecule?
A: Its TGI is 27 µM.

Q: What about the TGI (TK-10 renal) of the same molecule?
A: The TGI was 27.3 µM.

Q: And the TGI (HOP-92 NSCLC)?
A: Its TGI is 4.12 µM.

Q: What about the TGI (SK-MEL-2 melanoma) of the same molecule?
A: The TGI was 29 µM.

Q: And the TGI (MOLT-4 leukemia)?
A: Its TGI is 5.31 µM.

Q: What about the TGI (EKVX NSCLC) of the same molecule?
A: The TGI was 18.3 µM.

Q: What about the TGI (SR leukemia) of the same molecule?
A: Its TGI is 19.2 µM.

Q: What about the TGI (NCI-H23 lung) of the same molecule?
A: The TGI was 33.8 µM.

Q: What about the TGI (UACC-62 melanoma) of the same molecule?
A: The TGI was 25.1 µM.

Q: What about the TGI (CCRF-CEM leukemia) of the same molecule?
A: The TGI was 3.81 µM.

Q: What about the TGI (OVCAR-5 ovarian) of the same molecule?
A: Its TGI is 40 µM.

Q: And the TGI (ACHN renal)?
A: The TGI was 11.3 µM.

Q: And the TGI (SF-268 CNS)?
A: The TGI was 38.1 µM.

Q: What about the TGI (HT29 colon) of the same molecule?
A: The TGI was 55.8 µM.

Q: What about the TGI (HCT-15 colon) of the same molecule?
A: Its TGI is 31 µM.

Q: And the TGI (T-47D breast)?
A: The TGI was 20.3 µM.

Q: What about the TGI (OVCAR-8 ovarian) of the same molecule?
A: Its TGI is 69.3 µM.

Q: And the TGI (NCI-H460 lung)?
A: Its TGI is 27.4 µM.

Q: What about the TGI (SW-620 colon) of the same molecule?
A: The TGI was 26.2 µM.

Q: What about the TGI (HCC-2998 colon) of the same molecule?
A: Its TGI is 32.3 µM.

Q: And the TGI (M14 melanoma)?
A: Its TGI is 26.8 µM.

Q: And the TGI (KM12 colon)?
A: The TGI was 27.5 µM.

Q: What about the TGI (PC-3 prostate) of the same molecule?
A: The TGI was 26.8 µM.

Q: And the TGI (NCI-H522 lung)?
A: Its TGI is 8.9 µM.

Q: What about the TGI (U251 CNS) of the same molecule?
A: Its TGI is 24.5 µM.

Q: What about the TGI (SF-539 CNS) of the same molecule?
A: The TGI was 26.8 µM.

Q: What about the TGI (NCI/ADR-RES ovarian) of the same molecule?
A: Its TGI is 79.1 µM.

Q: And the TGI (BT-549 breast)?
A: Its TGI is 26 µM.

Q: What about the TGI (HS 578T breast) of the same molecule?
A: Its TGI is 60.1 µM.

Q: What about the TGI (SK-MEL-28 melanoma) of the same molecule?
A: The TGI was over 58.5 µM.

Q: What about the TGI (MDA-MB-231 breast) of the same molecule?
A: Its TGI is 10.4 µM.

Q: What about the TGI (NCI-H226 lung) of the same molecule?
A: Its TGI is 46.7 µM.

Q: What about the TGI (UO-31 renal) of the same molecule?
A: The TGI was 25.9 µM.

Q: What about the TGI (MDA-MB-435) of the same molecule?
A: Its TGI is 23.9 µM.

Q: What about the TGI (OVCAR-3 ovarian) of the same molecule?
A: The TGI was 26.3 µM.

Q: And the TGI (HCT-116 colon)?
A: Its TGI is 17.4 µM.

Q: What about the TGI (DU-145 prostate) of the same molecule?
A: Its TGI is 29.3 µM.

Q: What about the TGI (HOP-62 NSCLC) of the same molecule?
A: Its TGI is 64.5 µM.

Q: And the TGI (SN12C renal)?
A: Its TGI is 37 µM.

Q: What about the TGI (COLO 205 colon) of the same molecule?
A: The TGI was 43.3 µM.

Q: And the TGI (SNB-75 CNS)?
A: The TGI was 23.6 µM.

Q: And the TGI (RPMI-8226 leukemia)?
A: The TGI was 5.18 µM.

Q: What about the TGI (OVCAR-4 ovarian) of the same molecule?
A: The TGI was 24.1 µM.

Q: What about the TGI (IGROV1 ovarian) of the same molecule?
A: The TGI was 25.2 µM.

Q: What about the TGI (RXF 393 renal) of the same molecule?
A: The TGI was 19.1 µM.

Q: What about the TGI (UACC-257 melanoma) of the same molecule?
A: Its TGI is 26.1 µM.

Q: And the TGI (LOX IMVI melanoma)?
A: Its TGI is 13.1 µM.

Q: What about the TGI (MALME-3M melanoma) of the same molecule?
A: The TGI was 24.7 µM.

Q: And the TGI (A498 renal)?
A: Its TGI is 32.1 µM.

Q: And the TGI (A549 NSCLC)?
A: Its TGI is 35.8 µM.

Q: Which results are given for `CC(C)(C)OC(=O)N(CCCN)CCCCN`?
A: TGI (HL-60(TB) leukemia): > 100 µM; TGI (MCF7 breast): > 100 µM; TGI (K-562 leukemia): > 100 µM; TGI (SNB-19 CNS): > 100 µM; TGI (786-0 renal): > 100 µM; TGI (SK-OV-3 ovarian): > 100 µM; TGI (SF-295 CNS): > 100 µM; TGI (SK-MEL-5 melanoma): > 100 µM; TGI (TK-10 renal): > 100 µM; TGI (HOP-92 NSCLC): > 100 µM; TGI (SK-MEL-2 melanoma): > 100 µM; TGI (MOLT-4 leukemia): > 100 µM; TGI (EKVX NSCLC): > 100 µM; TGI (SR leukemia): > 100 µM; TGI (NCI-H23 lung): > 100 µM; TGI (UACC-62 melanoma): > 100 µM; TGI (CCRF-CEM leukemia): > 100 µM; TGI (OVCAR-5 ovarian): > 100 µM; TGI (ACHN renal): > 100 µM; TGI (SF-268 CNS): > 100 µM; TGI (HT29 colon): > 100 µM; TGI (HCT-15 colon): > 100 µM; TGI (T-47D breast): > 100 µM; TGI (OVCAR-8 ovarian): > 100 µM; TGI (NCI-H460 lung): > 100 µM; TGI (SW-620 colon): > 100 µM; TGI (HCC-2998 colon): > 100 µM; TGI (M14 melanoma): > 100 µM; TGI (KM12 colon): > 100 µM; TGI (PC-3 prostate): > 100 µM; TGI (NCI-H522 lung): > 100 µM; TGI (U251 CNS): > 100 µM; TGI (SF-539 CNS): > 100 µM; TGI (NCI/ADR-RES ovarian): > 100 µM; TGI (BT-549 breast): > 100 µM; TGI (HS 578T breast): > 100 µM; TGI (SK-MEL-28 melanoma): > 100 µM; TGI (MDA-MB-231 breast): > 100 µM; TGI (NCI-H226 lung): > 100 µM; TGI (UO-31 renal): > 100 µM; TGI (MDA-MB-435): > 100 µM; TGI (OVCAR-3 ovarian): > 100 µM; TGI (HCT-116 colon): > 100 µM; TGI (DU-145 prostate): > 100 µM; TGI (HOP-62 NSCLC): > 100 µM; TGI (SN12C renal): > 100 µM; TGI (CAKI-1 renal): > 100 µM; TGI (COLO 205 colon): > 100 µM; TGI (RPMI-8226 leukemia): > 100 µM; TGI (OVCAR-4 ovarian): > 100 µM; TGI (IGROV1 ovarian): > 100 µM; TGI (RXF 393 renal): > 100 µM; TGI (UACC-257 melanoma): > 100 µM; TGI (A498 renal): > 100 µM; TGI (A549 NSCLC): > 100 µM

— PubChem BioAssay (NCI)
